From PubChem BioAssay (NCI)
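In this assay, cells in 96-well plates receive the compound at five concentrations for 48 hours. Endpoints are linearly interpolated between the surrounding concentrations. The concentration for 50% growth inhibition is given as GI50. Definition used: TGI = concentration required for complete inhibition of growth.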 Where a SMILES comes first, the peptide text is derived from it. [ ]: non-standard residue; d: D form. ξ: configuration not given here. Pentanoyl(2-O,4-OH,5-Cl) = O=C(O)C(O)CC(O)CCl; Ile(3ξ) = CCC(C)[C@H](N)C(=O)O; NMeV = CN[C@H](C(=O)O)C(C)C; NMeA = CN[C@@H](C)C(=O)O; βAla = NCCC(=O)O

Tests used:
Experiment in all cases: growth of human tumour cells (NCI), 48 h
OVCAR-5 ovarian = system: OVCAR-5 ovarian
A549 NSCLC = system: A549 NSCLC
NCI-H460 lung = system: NCI-H460 lung
SK-OV-3 ovarian = system: SK-OV-3 ovarian
SF-268 CNS = system: SF-268 CNS
MALME-3M melanoma = system: MALME-3M melanoma
SK-MEL-28 melanoma = system: SK-MEL-28 melanoma
LOX IMVI melanoma = system: LOX IMVI melanoma
OVCAR-3 ovarian = system: OVCAR-3 ovarian
SR leukemia = system: SR leukemia

Row | Structure (SMILES) | TGI (OVCAR-5 ovarian) [µM] | TGI (A549 NSCLC) [µM] | TGI (NCI-H460 lung) [µM] | TGI (SK-OV-3 ovarian) [µM] | TGI (SF-268 CNS) [µM] | TGI (MALME-3M melanoma) [µM] | TGI (SK-MEL-28 melanoma) [µM] | TGI (LOX IMVI melanoma) [µM] | TGI (OVCAR-3 ovarian) [µM] | TGI (SR leukemia) [µM] | GI50 (OVCAR-5 ovarian) [µM] | GI50 (A549 NSCLC) [µM] | GI50 (NCI-H460 lung) [µM] | GI50 (SK-OV-3 ovarian) [µM] | GI50 (SF-268 CNS) [µM] | GI50 (MALME-3M melanoma) [µM] | GI50 (SK-MEL-28 melanoma) [µM] | GI50 (LOX IMVI melanoma) [µM] | GI50 (OVCAR-3 ovarian) [µM] | GI50 (SR leukemia) [µM]
1 | COc1cc(OC)c(OC)cc1/C=C/c1ccccn1 | > 10 | > 10 | > 10 | > 10 | > 10 | > 10 | > 10 | > 10 | > 10 |  |  |  |  |  |  |  |  |  |  | 
2 | Cc1cccc(-c2nc(=S)[nH][nH]2)c1 | > 100 | > 100 | > 100 | > 100 | > 100 | > 100 | > 100 |  | > 100 | > 100 |  |  |  |  |  |  |  |  |  | 
3 | CC(C)(Sc1cc(C(C)(C)C)c(O)c(C(C)(C)C)c1)Sc1cc(C(C)(C)C)c(O)c(C(C)(C)C)c1 | > 100 | > 100 | > 100 | > 100 | > 100 | > 100 | > 100 | > 100 |  |  |  |  |  |  |  |  |  |  |  | 
4 | Nc1nc(N)c2cc(S(=O)(=O)c3cccc(C(F)(F)F)c3)ccc2n1 | > 100 | > 100 | > 100 | > 100 | > 100 | > 100 | > 100 | > 100 | > 100 |  | 6.46 | 0.816 | 0.575 | 14.8 | 4.57 | 5.74 | 85.1 | 1.53 | 6 | 
5 | O=c1oc2ccccc2cc1P(=O)(O)O | > 100 | > 100 | > 100 |  | > 100 | > 100 | > 100 | > 100 | > 100 | > 100 |  |  |  |  |  |  |  |  |  | 
6 | O=c1c2ccccc2c(=O)n2n1-c1cccc(c1)CSSCc1cccc-2c1 | > 100 | > 100 |  | > 100 | > 100 | > 100 | > 100 | > 100 | > 100 | > 100 | > 100 | > 100 |  |  | > 100 | > 100 | > 100 |  | > 100 | > 100
7 | CC(C)N1CCOC(c2ccc(O)c(O)c2)C1 (stereo not drawn) | > 100 | > 100 | > 100 | > 100 | > 100 | > 100 | > 100 | > 100 | > 100 |  |  |  |  |  |  |  |  |  |  | 
8 | CS(=O)(=O)N(CCC#N)c1ccc(/C=C2\N=C(c3ccccc3Cl)OC2=O)cc1 | > 100 | > 100 | > 100 | > 100 | > 100 | > 100 | > 100 | > 100 | > 100 |  |  |  |  |  |  |  |  |  |  | 
9 | CN(C)C(=C1C(Br)=C(Br)C(Br)=C1Br)N(C)C | > 100 | > 100 | > 100 | > 100 | > 100 | > 100 | > 100 | 55.6 | > 100 |  |  |  |  |  |  |  |  |  |  | 
10 | O=C1CN=C(c2ccccc2)c2ccncc2N1 | > 100 | > 100 |  | > 100 | > 100 | > 100 | > 100 | > 100 | > 100 | > 100 |  |  |  |  |  |  |  |  |  | 
11 | O=C(c1ccccc1)[C@H]1Nc2ccc(Cl)cc2[C@H]2c3ccccc3O[C@H]21 | 29.5 | 30.2 | 34.3 |  | 33.9 | 31.7 | 25.8 | 37.2 | 25.7 | 66.6 |  |  |  |  |  |  |  |  |  | 
12 | COC1C(OC(=O)/C=C/C=C/C=C/C=C/C(=O)O)CCC2(CO2)C1C1(C)OC1CC=C(C)C (stereo not drawn) | > 100 | > 100 |  | > 84.5 | > 100 | > 75.3 | > 100 |  | > 80.9 | 67.6 |  | 0.308 |  |  | 0.388 | 0.45 | 0.442 | 0.183 | 0.314 | 0.22
13 | Clc1ccc2c(NC3CCC(NC4CCCCC4)CC3)ccnc2c1 (stereo not drawn) | 54.4 | 17.3 | 18.6 | 46.2 | 25.6 | 5.1 | 3.3 | 4.29 | 23.2 |  | 18.5 | 4.84 | 5.27 | 15.9 | 10.5 | 2.43 | 1.79 | 1.75 | 5.34 | 
14 | Cc1cc2c(cc1Cl)SC(=Nc1ccc(Cl)cc1)N(S(=O)(=O)c1ccc(Br)s1)S2(=O)=O | 34.1 | 48.7 | > 100 | 97.1 | > 100 |  | > 100 | 24.3 | 31.1 | > 100 | 15.7 | 18 | 35.2 | 34.5 | 32.2 |  | 24.6 | 9.26 | 15 | 5.11
15 | CCC(C)[C@@H]1NC(=O)[C@@H]2CCCN2C(=O)C(CC(O)CCl)OC(=O)CCNC(=O)[C@H](C)N(C)C(=O)[C@H](C(C)C)N(C)C1=O (stereo partly drawn) (cyclo([Ile(3ξ)][NMeV][NMeA][βAla][Pentanoyl(2-O,4-OH,5-Cl)]P)) | > 100 | > 100 | > 100 | > 100 | > 100 | > 100 | > 100 |  | > 100 | > 100 |  |  |  |  |  |  |  |  |  | 
16 | CN(c1ccccc1)c1nc(=[N+](C)C)ss1 | > 100 | > 100 | > 100 | > 100 | > 100 | > 100 | > 100 |  |  |  |  |  |  |  |  |  |  |  |  | 
17 | O=NN(CC1(O)OCC(O)C(O)C1O)C(Cc1c[nH]c2ccccc12)C(=O)O (stereo not drawn) | > 100 | > 100 | > 100 | > 100 |  | > 100 | > 100 | > 100 | > 100 |  |  |  |  |  |  |  |  |  |  | 
18 | CCC(=O)N1C(=S)SC[C@H]1C(=O)OC | > 100 | > 100 |  | > 100 | > 100 | > 100 | > 100 | > 100 | > 100 | > 100 |  |  |  |  |  |  |  |  |  | 
19 | O=C1C2C3SC(c4cc5ccccc5cc43)C2C(=O)N1c1ccccc1 (stereo not drawn) | > 100 | > 100 |  | > 100 | > 100 | > 100 | > 100 | > 100 | > 100 |  |  |  |  |  |  |  |  |  |  | 
20 | CN1CCN(c2cc(F)c(NC3=C(Cl)C(=O)c4ncccc4C3=O)c(F)c2)CC1 | 3.6 | 16.3 | 8.49 | 28.2 | 3.44 | 3.12 | 3.36 | 2.84 | 2 |  | 1.82 | 4.21 | 2.1 | 14.7 | 1.7 | 1.65 | 1.88 | 1.35 | 0.539 | 
21 | CCN(CC)CC(C(=O)Nc1c(C)cccc1C)/C(C)=N\NC(=S)NN (stereo not drawn) | > 100 | > 100 | > 100 | > 100 | > 100 | > 100 | > 100 | > 100 | > 100 |  |  |  |  |  |  |  |  |  |  | 
22 | O=C(O)CN(CCN(CC(=O)O)CC(=O)O)CCN(CC(=O)O)CC(=O)O | 20 | 3.5 | 7.09 | 8.62 | 10.8 |  | 17.2 | 11.6 | 9.84 |  | 4.01 | 1.62 | 2.49 | 3.19 | 3.04 |  | 4.05 | 3.22 | 3.51 | 
23 | Cc1cc[c]([Sb]2[O]C(CO)C(C(O)C(O)C(=O)O)[O]2)cc1 (stereo not drawn) | 75.2 | > 100 |  |  | > 100 | > 100 | > 100 | > 100 | > 100 | > 100 | 29.2 | 35.3 |  |  | > 100 | > 100 | 39.6 | 39.9 | > 100 | 47.2
24 | O=C1/C(=C/c2cc(O)c(O)c(O)c2)Oc2cc(O)cc(OC3OC(CO)C(O)C(O)C3O)c21 (stereo not drawn) |  | > 100 | 34 | > 100 |  |  | > 100 |  | 31.4 |  |  |  |  |  |  |  |  |  |  | 
25 | CC1COS(=O)N1c1ccccc1 (stereo not drawn) | > 100 | > 100 | > 100 | > 100 | > 100 | > 100 | > 100 | > 100 |  |  |  |  |  |  |  |  |  |  |  | 
26 | COc1cccc2c1C(=O)c1c(O)c3c(c(O)c1C2=O)C[C@@](O)(/C(C)=N/NC(=O)c1cccc([N+](=O)[O-])c1)C[C@@H]3OC1CC(N)C(O)C(C)O1 (stereo partly drawn) | 13.5 | 11.8 | 12.9 | 7.56 | 2.26 |  | 2.45 | 15.4 | 5.26 |  | 0.919 | 0.362 | 0.0548 | 0.374 | 0.269 |  | 0.608 | 0.146 | 0.396 | 0.0155
27 | O=C1c2ccccc2C(=O)N1C/C=N/NS(=O)(=O)c1cccc([N+](=O)[O-])c1 |  | > 100 | > 100 |  | > 100 | > 100 |  | > 100 |  | > 100 |  |  |  |  |  |  |  |  |  | 
28 | O=S(=O)(c1ccccc1)N1CCC1c1ccccc1 (stereo not drawn) |  | > 100 | > 100 | > 100 | > 100 | > 100 | > 100 | > 100 | > 100 |  |  |  |  |  |  |  |  |  |  | 
29 | CSC(=Nc1ccc([N+](=O)[O-])cc1C#N)NC(=O)c1ccccc1 | > 100 | > 100 | > 100 |  | > 100 | > 100 | > 100 | > 100 | > 100 | > 100 |  |  |  |  |  |  |  |  |  | 
